These results are taken from PMC12040169 (PLOS Biology, 2025).

Molecules are shown by their SMILES.

The nature of one data set: in vitro. The settings on record: human, hela cells, % viability.
On to `O=C(CCNC(=O)c1ccc(Br)o1)NCc1ccccc1Cl` [CBK294454], for which the viability at 28.5 h, 10 µM came out at 81.5%.
The same measure, in the same setting: next, `COc1ccc(OCCn2c(C(C)O)nc3ccccc32)cc1` (stereo not drawn) [CBK269905]: 93.2%; `CC(NC(=O)N(Cc1ccc(-c2ccccc2)cc1)CC(C)(C)CN)c1cccc2ccccc12` (stereo not drawn) [CBK002426C]: 50.9%.
Same read-out and setting: as for `Clc1cc(NCc2ccc(Cl)c(Cl)c2)n2nccc2n1` [CBK037043], the figure is 97.7%; as for `N#Cc1ccc(C(=O)Nc2cncc(OC3CCNCC3)n2)cc1` [CBK036371T], 90.6%.
For the compound `CC(C)(CO)CNc1nc(-c2ccsc2)cnc1N` [CBK063499], the viability at 28.5 h, 10 µM was found to be 103%.
Still for that read-out and setting: as for `COCCn1nc(C(=O)N2CCCc3ccccc32)ccc1=O` [CBK305590], the figure is 85.1%; as for `CN(C)c1ncc(-c2ccccc2)c(C2CCCN2Cc2ccc3ncccc3c2)n1` (stereo not drawn) [CBK286256], 77.6%; as for `Cc1cc(C(=O)CSc2nc3cc(Cl)cnc3[nH]2)c(C)n1C1CC1` [CBK305867], 79.5%.
Consider `C#CCNC(=O)CC[C@H]1CNC(=O)[C@@H]2[C@@H](CCN2Cc2nc3ccccc3n2C)N1C` [CBK289018], for which the viability at 28.5 h, 10 µM was 102%.
`Clc1cccc(-n2cnnn2)c1Cl` [CBK027665]: the viability at 28.5 h, 10 µM was 77.7%.
The same measure, in the same setting: as for `CCc1c(C)nc(C)nc1N1CCCn2nc(C(O)C3CC3)cc2C1` (stereo not drawn) [CBK306778], the figure is 100%; as for `COc1cc(F)cc(OC2CCNCC2)c1NC(=O)c1coc2c1C(=O)CCC2` [CBK050351T], 91.5%.
Same read-out and setting: next, `c1ccc(-c2ccc(OCCCCN3CCNCC3)cc2)cc1` [CBK266028G]: 95.8%; `CS(=O)(=O)N(CC(=O)Nc1ccccc1F)c1ccc(I)cc1` [CBK265265]: 97.4%; `Cc1cc(C)c(C#N)c(N2CCOC3(CCN(C(=O)OCc4ccccc4)CC3)C2)n1` [CBK161114T]: 91%.
In the case of `Cc1cc(C)n(-c2nc3ccccc3nc2N2CCN(S(=O)(=O)c3ccc4ccccc4c3)CC2)n1` [CBK269134], the viability at 28.5 h, 10 µM came to 103%.
On the same count and under the same terms, next, `O=C(CSc1ccc(-c2ccncc2)nn1)Nc1ccc(F)cc1` [CBK287297]: 91%.
Same read-out and setting: next, `O=C(Nc1cc(Cl)ccc1C(=O)NC1CCC(O)CC1)c1cccs1` (stereo not drawn) [CBK306186]: 89.2%.
Same read-out and setting: next, `Cc1cc(Cl)c(S(=O)(=O)Nc2cccc(Br)c2)cc1OCC(N)=O` [CBK266535]: 100%; `O=C1c2ccc(OCCOc3ccc4c(c3)C(=O)N(c3ccc(O)cc3)C4=O)cc2C(=O)N1c1ccc(O)cc1` [CBK262668]: 91.3%.
As to `Cc1nn(C)c(Cl)c1S(=O)(=O)Nc1cccnc1N1CCOCC1` [CBK062286], the viability at 28.5 h, 10 µM stood at 99.5%.
On the same count and under the same terms, as for `O=C(N/N=C/c1ccccc1O)c1ccn(Cc2ccc(Cl)cc2)n1` [CBK262770], the figure is 91.3%; as for `CCOC(=O)CNS(=O)(=O)c1ccc(F)cc1` [CBK034442], 92.3%; as for `Cc1ccc(S(=O)(=O)NC(C)(C)CN2CCN(C(c3ccccc3)c3ccccc3)CC2)cc1` [CBK262799], 90%.
Still for that read-out and setting: as for `CCOC(=O)c1c(NC(=O)NCc2cccnc2)sc2c1CCC2` [CBK307585], the figure is 87.3%.
For `Cc1ccc(C(=O)CC(C(=O)O)c2cn(CCC#N)c3ccccc23)cc1` (stereo not drawn) [CBK287194], the viability at 28.5 h, 10 µM turned out to be 85.8%.
Same read-out and setting: next, `Cc1noc(/C=C\c2cc(C)n(-c3ccc(C(=O)O)cc3)c2C)c1[N+](=O)[O-]` [CBK268862]: 98.8%; `Cc1ccc2c(c1)C(=O)CC1(CC3CCC1N3C(=O)C(C)C)O2` (stereo not drawn) [CBK284468]: 87.1%.
On the same count and under the same terms, as for `COc1cc(C#N)ccc1Oc1nnnn1-c1ccccc1` [CBK002571], the figure is 93.1%; as for `Cc1oc(C(C)(C)C)cc1C(=O)NCCNc1c(Cl)cccc1[N+](=O)[O-]` [CBK265032], 119%; as for `CCn1c(SCC(=O)Nc2cc(Cl)ccc2O)nnc1-c1ccccc1` [CBK269680], 87.4%.
The same measure, in the same setting: as for `COc1ccc(CN2C(=O)CS(=O)(=O)CC2=O)cc1OC` [CBK011127], the figure is 86.4%; as for `Cc1ccc(C(C)C)c(OCC(=O)Nc2ccc(F)c([N+](=O)[O-])c2)c1` [CBK263771], 91.7%; as for `CS(=O)(=O)c1ccccc1C(=O)n1ccn(-c2ccc(Oc3ccccc3)cc2)c1=O` [CBK106647], 80.8%.
For `CC(C)C(=O)Nc1cc2cccnc2c(-c2ccc3c(c2)CCO3)n1` [CBK081260], the viability at 28.5 h, 10 µM worked out at 114%.
Consider `O=C(CN1C(=O)c2ccc(Br)cc2C1=O)OCc1ccc(S(=O)(=O)N2CCOCC2)cc1` [CBK267505], for which the viability at 28.5 h, 10 µM turned out to be 84.6%.
Still for that read-out and setting: next, `COc1ccc([C@@]23CC[C@@H](NC(=O)Nc4ccc(F)c(F)c4)C[C@@H]2N(C(=O)CN)CC3)cc1OC` [CBK051679]: 111%.
On the same count and under the same terms, as for `c1ccc(CCNc2cncc(-c3cc4ccccc4o3)n2)nc1` [CBK066036], the figure is 96.5%; as for `O=c1[nH]c(=O)c2c3c(sc2[nH]1)CCCC3` [CBK027724], 67.6%; as for `O=C1c2ccccc2NC(c2ccccc2F)N1O` (stereo not drawn) [CBK288377], 93.4%.
Regarding `O=C(COc1ccc(S(=O)(=O)N2CCCCC2)cc1Cl)Nc1ccc2c(c1)OCCO2` [CBK269540], the viability at 28.5 h, 10 µM amounted to 97%.
The same measure, in the same setting: next, `O=C(CNc1n[nH]c(=O)[nH]c1=O)N/N=C/c1ccc(C(=O)O)cc1` [CBK263529]: 96.2%; `O=C(c1ccc2ncccc2c1)N1CCN(c2ncccn2)CC1` [CBK144503]: 87.9%; `CNC(=O)CN(CCO)Cc1cc(Br)ccc1F` [CBK304941]: 108%.
The same measure, in the same setting: as for `O=C(NC(=O)C1CCN(CCc2cccc(C(F)(F)F)c2)CC1)Nc1cccc2ccccc12` [CBK035070], the figure is 92.2%; as for `O=C(O)COC(=O)C1C(c2ccccc2)C(C(=O)O)C1c1ccccc1` (stereo not drawn) [CBK263881], 85.9%.
Same read-out and setting: as for `Cc1ccc(Oc2ccc(C(=O)NCC(=O)O)cc2)cc1C` [CBK286570], the figure is 84.5%.
For `O=C(C1CC1)N1CCC2(CC1)Nc1cccnc1-n1cccc12` [CBK284504], the viability at 28.5 h, 10 µM came out at 107%.
Still for that read-out and setting: as for `Cc1cccc(NCC(=O)N/N=C/c2cc3ccccc3nc2Cl)c1` [CBK261236], the figure is 90%; as for `CCCCCn1c(=O)c(-c2nc3ccccc3c(=O)[nH]2)c(O)c2ccccc21` [CBK291215], 110%; as for `Cc1ccc(Cl)cc1N=C(N)N=C(N)N` [CBK268049], 98.8%.
On the same count and under the same terms, next, `COc1ccc(CN2CCC(C(=O)NC(c3ccc(OC)nc3)c3ccccc3C)CC2)cc1` (stereo not drawn) [CBK081445T]: 86.7%; `CN(C)CCN1C(=O)C(O)=C(C(=O)c2ccc(S(=O)(=O)N3CCOCC3)cc2)C1c1ccccc1` (stereo not drawn) [CBK264668]: 100%; `CCn1nc(C(C)C)cc1C(=O)N1CC2(CCNCC2)CC1C(=O)O` (stereo not drawn) [CBK307179]: 90.9%.
For `CN1CCN(Cc2ccc(-c3ccc(C(N)=O)cc3)nc2)CC1` [CBK306750], the viability at 28.5 h, 10 µM was 87.3%.
The same measure, in the same setting: next, `NC(=O)c1ccccc1NC(=O)c1ccc2ccccc2c1` [CBK261171]: 90.8%; `CC1(CNC(=O)c2cc(-c3ccc(F)cc3)no2)COC1` [CBK281757]: 84.2%; `O=C(NCCc1ccccc1)Nc1cc2cccnc2c(Br)n1` [CBK063283]: 95.9%.
Still for that read-out and setting: as for `CCCn1cnnc1C(C)NC(=O)N(C)Cc1nc2cccc(C)c2[nH]1` (stereo not drawn) [CBK307551], the figure is 112%; as for `COc1ccc(/C=C(\C#N)c2nc3ccccc3n2Cc2c(C)ccc3ccccc23)cc1` [CBK262960], 119%; as for `Cc1cc(COc2nccnc2OC2CCN(Cc3ccccc3F)CC2)no1` [CBK082948T], 109%.
On the same count and under the same terms, as for `O=C(Nc1ccc(Cl)c(Cl)c1)Nc1ccccc1C(=O)O` [CBK263344], the figure is 82%.
For `CC(=O)Oc1ccc(NC(=O)C2CC(Cl)=CCC2C(=O)O)cc1C(=O)O` (stereo not drawn) [CBK265372], the viability at 28.5 h, 10 µM worked out at 100%.
With `Cc1cc(NC(=O)CN2CCN(Cc3ccc(Cl)nc3)CC2)no1` [CBK305504], the viability at 28.5 h, 10 µM was 104%.
Same read-out and setting: next, `O=C(CN1C(=O)C2C3C=CC(C3)C2C1=O)NCc1ccco1` (stereo not drawn) [CBK265116]: 96.4%; `Cc1ccc(-c2oncc2C(=O)N2CCC(n3c(=O)[nH]c4ccccc43)CC2)cc1` [CBK149180]: 106%; `O=C1c2ccc(Oc3cccc(Oc4ccc5c(c4)C(=O)N(c4ccccn4)C5=O)c3)cc2C(=O)N1c1ccccn1` [CBK261397]: 89.8%.
Same read-out and setting: as for `CSc1ncc(Cl)c(C(=O)Nc2nc(-c3ccc(S(=O)(=O)N4CCCCCC4)cc3)cs2)n1` [CBK268785], the figure is 96.5%; as for `NC(=O)COc1ccc(CNC(=O)CN2CCc3ccccc32)cc1` [CBK306330], 96.1%; as for `Cc1ccc2oc(-c3cccc(NC(=O)c4ccc(-c5ccc([N+](=O)[O-])cc5)o4)c3C)nc2c1` [CBK263437], 103%.
The same measure, in the same setting: as for `CN1C2CCC1CC(OC(=O)CNC1CCCCC1)C2` (stereo not drawn) [CBK278161C], the figure is 93.6%; as for `Cn1c(=O)c2c(nc(CN3CCC(Cc4ccccc4)CC3)n2CC(=O)c2ccccc2)n(C)c1=O` [CBK236846], 88%; as for `O=C(O)c1ccc(NS(=O)(=O)Cc2ccccc2)cc1` [CBK034061], 105%.
`Cc1cc(COc2nc3ccccc3nc2N2CCCC2)no1` [CBK115768]: the viability at 28.5 h, 10 µM is 109%.

The same data set, now with this note: human, hela cells, % viability, bulk resorufin, single well.
On to `CC(C)(C)OC(=O)NCCCCC(=O)N1CCC(C#N)(c2ccccc2)CC1` [CBK091401], for which the viability at 28.5 h, 10 µM was 89.4%.
On the same count and under the same terms, next, `CC(=O)N1CCC2(CC1)OCc1cc(-c3ccccc3C#N)ccc1O2` [CBK061006]: 100%; `CN1C(=O)C(=CNCCCC(=O)O)C(=O)N(C)C1=O` [CBK264420]: 90.4%.

One may read the viability as a read-out of living cells in per cent, often relative to untreated cells.
